The term pIC50 denotes the negative decadic logarithm of the IC50, by convention in mol/L. Lower therefore signals a high IC50.

pIC50: −log10 of the molar value.

The target in this assay is TrkA (Homo sapiens (Human), UniProt P04629). Kind of assay: TrkA Omnia Assay. The assay is classed as biochemical. The settings on record: averaged IC50; 20 nM enzyme, 500 μM ATP, 10 μM peptide substrate. In a few lines: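 Continuous fluorescent kinase read-out (ex 360 nm, em 485 nm) over 70 min, with initial rates fitted to 4- or 5-parameter logistic curves for IC50. Final conditions: 500 μM ATP, 10 μM Omnia Tyr Peptide #4, 20 nM TrkA, MOPS pH 7.5 buffer with MgCl2 and Triton X-100; enzyme and compound preincubated 10 min at ambient temperature.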
Chain of TrkA (P04629 33-796): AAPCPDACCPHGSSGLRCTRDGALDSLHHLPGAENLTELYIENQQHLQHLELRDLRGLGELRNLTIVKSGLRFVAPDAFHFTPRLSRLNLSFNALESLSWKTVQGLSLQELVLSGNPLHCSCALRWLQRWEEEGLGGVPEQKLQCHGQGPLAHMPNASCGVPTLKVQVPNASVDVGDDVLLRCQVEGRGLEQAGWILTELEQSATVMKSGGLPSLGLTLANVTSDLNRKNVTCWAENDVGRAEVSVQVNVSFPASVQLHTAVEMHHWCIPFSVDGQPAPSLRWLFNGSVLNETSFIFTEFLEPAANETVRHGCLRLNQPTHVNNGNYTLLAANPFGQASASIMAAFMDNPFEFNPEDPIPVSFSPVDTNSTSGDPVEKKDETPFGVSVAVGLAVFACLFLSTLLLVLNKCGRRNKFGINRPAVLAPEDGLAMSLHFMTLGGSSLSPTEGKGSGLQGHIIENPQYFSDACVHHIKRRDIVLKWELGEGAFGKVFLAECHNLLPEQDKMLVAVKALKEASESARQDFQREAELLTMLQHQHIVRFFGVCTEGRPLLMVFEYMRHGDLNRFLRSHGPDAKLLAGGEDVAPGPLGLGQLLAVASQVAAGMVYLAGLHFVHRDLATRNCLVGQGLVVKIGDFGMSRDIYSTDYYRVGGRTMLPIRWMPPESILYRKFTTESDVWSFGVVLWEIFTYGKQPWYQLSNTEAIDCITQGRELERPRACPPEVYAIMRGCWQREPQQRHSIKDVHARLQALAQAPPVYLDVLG
Regarding `CCOc1nn(-c2ccccc2)c(NC(=O)N[C@@H]2CN(CCOC)C[C@H]2c2cc(F)cc(F)c2)c1CO` [Example 464, 1-((3S,4R)-4-(3,5-difluorophenyl)-1-(2-methoxyethyl)pyrrolidin-3-yl)-3-(3-ethoxy-4-(hydroxymethyl)-1-phenyl-1H-pyrazol-5-yl)urea], the pIC50 was > 7.00. `COCCN1C[C@@H](NC(=O)Nc2c(C)c(OC[C@H](O)COC)nn2-c2ccccc2)[C@H](c2ccc(F)c(F)c2)C1` [Example 563, 1-((3S,4R)-4-(3,4-difluorophenyl)-1-(2-methoxyethyl)pyrrolidin-3-yl)-3-(3-((R)-2-hydroxy-3-methoxypropoxy)-4-methyl-1-phenyl-1H-pyrazol-5-yl)urea]: the negative-log IC50 (pIC50) was > 7.00. Under `COCCN1C[C@@H](NC(=O)Nc2c(-c3ccccc3)nn(C)c2C)[C@H](c2cc(F)cc(F)c2)C1` [Example 640, 1-((3S,4R)-4-(3,5-difluorophenyl)-1-(2-methoxyethyl)pyrrolidin-3-yl)-3-(1,5-dimethyl-3-phenyl-1H-pyrazol-4-yl)urea] stands > 7.00; under `Cc1c(OCC(C)(C)O)nn(-c2ccccc2)c1NC(=O)N[C@@H]1CN(c2cn[nH]c2)C[C@H]1c1ccc(F)c(F)c1` [Example 227, 1-((3S,4R)-4-(3,4-difluorophenyl)-1-(1H-pyrazol-4-yl)pyrrolidin-3-yl)-3-(3-(2-hydroxy-2-methylpropoxy)-4-methyl-1-phenyl-1H-pyrazol-5-yl)urea], > 7.00; under `COCCN1C[C@@H](NC(=O)Nc2c(C)c(OCC(=O)N3CCOCC3)nn2-c2ccccc2)[C@H](c2ccc(F)c(F)c2)C1` [Example 552, 1-((3S,4R)-4-(3,4-difluorophenyvl)-1-(2-methoxyethyl)pyrrolidin-3-yl)-3-(4-methyl-3-(2-morpholino-2-oxoethoxy)-1-phenyl-1H-pyrazol-5-yl)urea], > 7.00.

On to `CCc1nn(-c2ccccc2)c(NC(=O)N[C@@H]2CN(CCOC)C[C@H]2c2ccc(F)c(F)c2)c1C#N` [Example 616, 1-(4-cyano-3-ethyl-1-phenyl-1H-pyrazol-5-yl)-3-((3S,4R)-4-(3,4-difluorophenyl)-1-(2-methoxyethyl)pyrrolidin-3-yl)urea.], for which the pIC50 is > 7.00. Take `COCCN1C[C@@H](NC(=O)Nc2c(C)c(OCCN3CCOCC3)nn2-c2ccccc2)[C@H](c2ccc(F)c(F)c2)C1` [Example 386, 1-((3S,4R)-4-(3,4-difluorophenyl)-1-(2-methoxyethyl)pyrrolidin-3-yl)-3-(4-methyl-3-(2-morpholinoethoxy)-1-phenyl-1H-pyrazol-5-yl)urea]: the pIC50 is > 7.00. As to `CC[C@@H](O)COc1nn(-c2ccccc2)c(NC(=O)N[C@@H]2CN(CCOC)C[C@H]2c2ccc(F)cc2)c1C` [Example 379, 1-((3S,4R)-4-(4-fluorophenyl)-1-(2-methoxyethyl)pyrrolidin-3-yl)-3-(3-((R)-2-hydroxybutoxy)-4-methyl-1-phenyl-1H-pyrazol-5-yl)urea], the pIC50 is > 7.00.

Turning to `COCCOC(=O)c1ccc(-c2cc(NC(=O)N[C@@H]3CN(CCOC)C[C@H]3c3ccc(F)c(F)c3)n(C)n2)cc1` [Example 170, 2-methoxyethyl 4-(5-(3-((3S,4R)-4-(3,4-difluorophenyl)-1-(2-methoxyethyl)pyrrolidin-3-yl)ureido)-1-methyl-1H-pyrazol-3-yl)benzoate], the pIC50 is > 7.00. As to `COCCN1C[C@@H](NC(=O)Nc2c3c(nn2-c2ccccc2)CCC3)[C@H](c2ccc(F)cc2)C1` [Example 128, 1-((3S,4R)-4-(4-fluorophenyl)-1-(2-methoxyethyl)pyrrolidin-3-yl)-3-(2-phenyl-2,4,5,6-tetrahydrocyclo-penta[c]pyrazol-3-yl)urea], the pIC50 was > 7.00. Take `COCCN1C[C@@H](NC(=O)Nc2c(Cl)c(C(F)(F)CO)nn2-c2ccccc2)[C@H](c2ccc(F)cc2)C1` [Example 411, 1-(4-chloro-3-(1,1-difluoro-2-hydroxyethyl)-1-phenyl-1H-pyrazol-5-yl)-3-((3S,4R)-4-(4-fluorophenyl)-1-(2-methoxyethyl)pyrrolidin-3-yl)urea]: the pIC50 was > 7.00. The compound `CCOc1nn(-c2ccccc2)c(NC(=O)N[C@@H]2CN(c3ccccc3OC(F)(F)F)C[C@H]2c2ccccc2)c1C` [Example 239, 1-(3-ethoxy-4-methyl-1-phenyl-1H-pyrazol-5-yl)-3-((3S,4R)-4-phenyl-1-(2-(trifluoromethoxy)phenyl)pyrrolidin-3-yl)urea] gave a pIC50 of 6.00 to 7.00. With `COCCN1C[C@@H](NC(=O)Nc2c(C(F)(F)F)c(OC)nn2-c2ccccc2)[C@H](c2ccc(F)c(F)c2)C1` [Example 605, 1-((3S,4R)-4-(3,4-difluorophenyl)-1-(2-methoxyethyl)pyrrolidin-3-yl)-3-(3-methoxy-1-phenyl-4-(trifluoromethyl)-1H-pyrazol-5-yl)urea], the negative-log IC50 (pIC50) is > 7.00. Turning to `Cc1nn(-c2ccccc2)c(NC(=O)N[C@H]2CN(CC(F)(F)F)C[C@@H]2c2ccccc2)c1C` [Example 265, 1-(3,4-dimethyl-1-phenyl-1H-pyrazol-5-yl)-3-((3R,4S)-4-phenyl-1-(2,2,2-trifluoroethyl)pyrrolidin-3-yl)urea], the pIC50 is > 7.00. Under `COCCN1C[C@@H](NC(=O)Nc2c(C)c(OCCS(C)(=O)=O)nn2-c2ccccc2)[C@H](c2ccc(F)c(F)c2)C1` [Example 174, 1-((3S,4R)-4-(3,4-difluorophenyl)-1-(2-methoxyethyl)pyrrolidin-3-yl)-3-(4-methyl-3-(2-(methylsulfonyl)ethoxy)-1-phenyl-1H-pyrazol-5-yl)urea] stands > 7.00; under `COCCN1C[C@@H](NC(=O)Nc2c(C)c(-c3cnn(C)c3)nn2-c2ccccc2)[C@H](c2ccncc2F)C1` [Example 346, 1-(1′,4-dimethyl-1-phenyl-1H,1′H-[3,4′-bipyrazol]-5-yl)-3-((3S,4R)-4-(3-fluoropyridin-4-yl)-1-(2-methoxyethyl)pyrrolidin-3-yl)urea], > 7.00; under `COCCN1C[C@@H](NC(=O)Nc2c3c(nn2-c2ccccc2)CCC3)[C@](O)(c2ccccc2)C1` [Example 180, 1-((3R,4S)-4-hydroxy-1-(2-methoxyethyl)-4-phenylpyrrolidin-3-yl)-3-(2-phenyl-2,4,5,6-tetrahydrocyclopenta[c]pyrazol-3-yl)urea], 5.00 to 6.00. Take `COCCN1C[C@@H](NC(=O)Nc2c(C)c(C(C)C)nn2-c2ccccc2)[C@H](c2ccccc2)C1` [Example 80, 1-(3-isopropyl-4-methyl-1-phenyl-1H-pyrazol-5-yl)-3-((3S,4R)-1-(2-methoxy-ethyl)-4-phenylpyrrolidin-3-yl)urea]: the pIC50 was > 7.00. `CCOc1nn(-c2ccccc2)c(NC(=O)N[C@@H]2CN(c3ccccc3OC)C[C@H]2c2ccccc2)c1C` [Example 237, 1-(3-ethoxy-4-methyl-1-phenyl-1H-pyrazol-5-yl)-3-((3S,4R)-1-(2-methoxyphenyl)-4-phenylpyrrolidin-3-yl)urea]: the negative-log IC50 (pIC50) was 6.00 to 7.00. For `CC[C@H](O)COc1nn(-c2ccccc2)c(NC(=O)N[C@@H]2CN(CCOC)C[C@H]2c2ccc(F)c(F)c2)c1C` [Example 360, 1-((3S,4R)-4-(3,4-difluorophenyl)-1-(2-methoxyethyl)pyrrolidin-3-yl)-3-(3-((S)-2-hydroxybutoxy)-4-methyl-1-phenyl-1H-pyrazol-5-yl)urea], the pIC50 is > 7.00. As to `COCCN1C[C@@H](NC(=O)Nc2c3c(nn2-c2ccccc2)CCC3)[C@H](c2ccno2)C1` (relative stereo) [Example 47, 1-(trans-4-(isoxazol-5-yl)-1-(2-methoxyethyl)pyrrolidin-3-yl)-3-(2-phenyl-2,4,5,6-tetrahydrocyclopenta[c]pyrazol-3-yl)urea], the pIC50 was 6.00 to 7.00. Regarding `Cc1c(OC[C@H](O)CO)nn(-c2ccccc2)c1NC(=O)N[C@@H]1CN(c2cn[nH]c2)C[C@H]1c1ccc(F)c(F)c1` [Example 222, 1-((3S,4R)-4-(3,4-difluorophenyl)-1-(1H-pyrazol-4-yl)pyrrolidin-3-yl)-3-(3-((R)-2,3-dihydroxypropoxy)-4-methyl-1-phenyl-1H-pyrazol-5-yl)urea], the pIC50 is > 7.00. Turning to `COCCN1C[C@@H](NC(=O)Nc2c(C)c(OC[C@H]3COC(C)(C)O3)nn2-c2ccccc2)[C@H](c2ccc(F)c(F)c2)C1` [Example 76, 1-((3S,4R)-4-(3,4-difluorophenyl)-1-(2-methoxyethyl)pyrrolidin-3-yl)-3-(3-(((S)-2,2-dimethyl-1,3-dioxolan-4-yl)methoxy)-4-methyl-1-phenyl-1H-pyrazol-5-yl)urea], the pIC50 is > 7.00. For `COCCN1C[C@@H](NC(=O)Nc2c3c(nn2-c2ccccc2)CS(=O)(=O)C3)[C@H](c2cc(F)cc(F)c2)C1` [Example 173, 1-((3S,4R)-4-(3,5-difluorophenyl)-1-(2-methoxyethyl)pyrrolidin-3-yl)-3-(5,5-dioxido-2-phenyl-4,6-dihydro-2H-thieno[3,4-c]pyrazol-3-yl)urea], the pIC50 is > 7.00. `COCCN1C[C@@H](NC(=O)Nc2c(C)c(-c3cnn(C(=O)C4CC4)c3)nn2-c2ccccc2)[C@H](c2ccc(F)c(F)c2)C1` [Example 501, 1-(1′-(cyclopropanecarbonyl)-4-methyl-1-phenyl-1H,1′H-[3,4′-bipyrazol]-5-yl)-3-((3S,4R)-4-(3,4-difluorophenyl)-1-(2-methoxyethyl)pyrrolidin-3-yl)urea]: the negative-log IC50 (pIC50) is > 7.00. Consider `COCCN1C[C@@H](NC(=O)Nc2c(C)c(C)nn2-c2ccccc2)[C@H](c2cc(F)cc(F)c2)C1` [Example 83, 1-((3S,4R)-4-(3,5-difluoro-phenyl)-1-(2-methoxyethyl)pyrrolidin-3-yl)-3-(3,4-dimethyl-1-phenyl-1H-pyrazol-5-yl)urea], for which the pIC50 is > 7.00.

With `O=C(Nc1c2c(nn1-c1ccccc1)CCC2)N[C@H]1CN(CC(F)(F)F)C[C@@H]1c1cccc(F)c1` [Example 204, 1-((3R,4S)-4-(3-fluorophenyl)-1-(2,2,2-trifluoroethyl)pyrrolidin-3-yl)-3-(2-phenyl-2,4,5,6-tetrahydrocyclopenta[c]pyrazol-3-yl)urea], the pIC50 was > 7.00.

Values taken from patent publication US10323022B2, “Pyrrolidinyl urea, pyrrolidinyl thiourea and pyrrolidinyl guanidine compounds as TrkA kinase inhibitors” (Array BioPharma Inc., priority 2011, dated 2019).
